Where two headings read alike, the source gives them in different places.

The conditions of data set [1]: cited from earlier work.
The subject of a further data set is CTCL cells. The data set is described as follows: Apoptosis by Annexin V-FITC flow cytometry in CTCL cell lines. The conditions noted are these: Annexin V assay measured by flow cytometry; FIGS. 5A-5D. Type of data set: cell-based, Human. On the procedure: Human CTCL cell lines (Hut78, SeAx, and MyLa) were grown in RPMI 1640 medium supplemented with 10% heat-inactivated fetal bovine serume (FBS), glutamine (2 mM) and streptomycin (100 μg/ml) at 37° C., 5% CO2 and 95% humidity.
Romidepsin was used in a concentration ranging from 0.25 nM to 10 μM. 5-azacitidine was used in a concentration ranging from 500 nM to 10 μM. After 24 to 72 hours of the combined drug treatment, the levels of apoptosis and necrosis were measured by flow cytometry with Annexin V-FITC detection kit.
Background: Flow cytometry measures light scatter and fluorescence of single cells or particles in a stream.

On to `Nc1ncn([C@@H]2O[C@H](CO)[C@@H](O)[C@H]2O)c(=O)n1` [5-azacitidine, 4-amino-1-β-D-ribofuranozyl-s-triazin-2(1H)-one], for which the solubility entry in data set [1] (acetone, ethanol and methyl ketone) is given as “insoluble”; in data set [1] (dimethylsulfoxide (DMSO)) it was “soluble”; in data set [1] (ethanol/water (50/50), propylene glycol and polyethylene glycol), “slightly soluble”; in data set [1] (water, water-saturated octanol, 5% dextrose in water, N-methyl-2-pyrrolidone, normal saline and 5% Tween 80 in water), “sparingly soluble”. The apoptosis with CTCL cells is recorded as 21.4%.
The compound `C/C=C1\NC(=O)[C@H]2CSSCC/C=C/[C@H](CC(=O)N[C@H](C(C)C)C(=O)N2)OC(=O)[C@H](C(C)C)NC1=O` [romidepsin, (1S,4S,7Z,10S,16E,21R)-7-ethylidene-4,2′-bis(1-methylethyl)-2-oxa-12,13-dithia-5,8,20,23-tetrazabicyclo[8.7.6]tricos-16-ene-3,6,9,19,22-pentone] displayed an apoptosis with CTCL cells of 18.8%.

Values taken from patent US20130085115A1, “COMBINATION THERAPY FOR LYMPHOMA” (Celgene Corporation, priority 2011, published 2013).
